Reference: US9834571B2, “Compounds for inhibiting cell proliferation in EGFR-driven cancers” (ARIAD Pharmaceuticals, Inc., priority 2012, dated 2017)
Like-named read-outs stand apart in the source and are kept apart here.

How the values were obtained:
[1] = target: human EGFR (native sequence) (Homo sapiens, UniProt P00533); experiment: Kinase inhibitory activity against human EGFR (native sequence); format: biochemical; details: 10 μM ATP, read-out: IC50 for kinase inhibition, EGFR
Procedure, shortened: (§1)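 Compounds were titrated over ten points starting at 3 μM, each point in singlicate, and kinase activity was measured in the presence of 10 μM ATP.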

EGFR L858R = EGFR L858R (Homo sapiens, UniProt P00533, L858R); experiment: Kinase inhibitory activity against EGFR bearing the L858R mutation; format: biochemical; details: 10 μM ATP, read-out: IC50 for kinase inhibition, EGFR L858R
Procedure, shortened: as §1

EGFR L858R/T790M = EGFR L858R/T790M (Homo sapiens, UniProt P00533, L858R/T790M); experiment: Kinase inhibitory activity against EGFR bearing the L858R/T790M double mutation; format: biochemical; details: 10 μM ATP, read-out: IC50 for kinase inhibition, EGFR L858R T790M
Procedure, shortened: as §1

[2] = target: T1, BaF3 cells expressing the target EGFR mutations (Homo sapiens, UniProt P00533, T790M, cells depend on it, form not given); experiment: Antiproliferative activity (MTT) against BaF3 cells expressing the target EGFR mutations; format: cell-based; details: BAF3 EGFR DEL T790M PURO POOL cells, read-out: IC50, BAF3 EGFR DEL T790M PURO POOL
T1 construct: IC50, BAF3 EGFR DEL T790M PURO POOL; other: BAF3 EGFR DEL T790M PURO POOL cells, MTT; other: BAF3 EGFR DEL T790M PURO POOL cells; MTT
Procedure, shortened: (§2)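 Antiproliferative effect was measured by MTT in BaF3 cells engineered to express mutant EGFR, with wildtype-EGFR BaF3 cells as the control line.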

[3] = target: T2, BaF3 cells expressing the target EGFR mutations (Homo sapiens, UniProt P00533, T790M/L858R, cells depend on it); experiment: as above; format: cell-based; details: BAF3 EGFR L858R-T790M PURO POOL cells, read-out: IC50, BAF3 EGFR L858R-T790M PURO POOL
T2 construct: IC50, BAF3 EGFR L858R-T790M PURO POOL; other: BAF3 EGFR L858R-T790M PURO POOL cells, MTT; IC50, BAF3 EGFR L858R-T790M PURO POOL; other: BAF3 EGFR L858R-T790M PURO POOL cells; MTT
Procedure, shortened: as §2

[4] = tested on: BaF3 cells expressing wildtype EGFR; experiment: Antiproliferative activity (MTT) against control BaF3 cells expressing wildtype EGFR; format: cell-based; details: Mus musculus
Procedure, shortened: as §2

[5] = EGFR L858R/T790M double mutation
[6] = 10 pt curves, 3 μM top concentration

Chain of EGFR L858R/T790M (P00533 25-1210 T790M/L858R): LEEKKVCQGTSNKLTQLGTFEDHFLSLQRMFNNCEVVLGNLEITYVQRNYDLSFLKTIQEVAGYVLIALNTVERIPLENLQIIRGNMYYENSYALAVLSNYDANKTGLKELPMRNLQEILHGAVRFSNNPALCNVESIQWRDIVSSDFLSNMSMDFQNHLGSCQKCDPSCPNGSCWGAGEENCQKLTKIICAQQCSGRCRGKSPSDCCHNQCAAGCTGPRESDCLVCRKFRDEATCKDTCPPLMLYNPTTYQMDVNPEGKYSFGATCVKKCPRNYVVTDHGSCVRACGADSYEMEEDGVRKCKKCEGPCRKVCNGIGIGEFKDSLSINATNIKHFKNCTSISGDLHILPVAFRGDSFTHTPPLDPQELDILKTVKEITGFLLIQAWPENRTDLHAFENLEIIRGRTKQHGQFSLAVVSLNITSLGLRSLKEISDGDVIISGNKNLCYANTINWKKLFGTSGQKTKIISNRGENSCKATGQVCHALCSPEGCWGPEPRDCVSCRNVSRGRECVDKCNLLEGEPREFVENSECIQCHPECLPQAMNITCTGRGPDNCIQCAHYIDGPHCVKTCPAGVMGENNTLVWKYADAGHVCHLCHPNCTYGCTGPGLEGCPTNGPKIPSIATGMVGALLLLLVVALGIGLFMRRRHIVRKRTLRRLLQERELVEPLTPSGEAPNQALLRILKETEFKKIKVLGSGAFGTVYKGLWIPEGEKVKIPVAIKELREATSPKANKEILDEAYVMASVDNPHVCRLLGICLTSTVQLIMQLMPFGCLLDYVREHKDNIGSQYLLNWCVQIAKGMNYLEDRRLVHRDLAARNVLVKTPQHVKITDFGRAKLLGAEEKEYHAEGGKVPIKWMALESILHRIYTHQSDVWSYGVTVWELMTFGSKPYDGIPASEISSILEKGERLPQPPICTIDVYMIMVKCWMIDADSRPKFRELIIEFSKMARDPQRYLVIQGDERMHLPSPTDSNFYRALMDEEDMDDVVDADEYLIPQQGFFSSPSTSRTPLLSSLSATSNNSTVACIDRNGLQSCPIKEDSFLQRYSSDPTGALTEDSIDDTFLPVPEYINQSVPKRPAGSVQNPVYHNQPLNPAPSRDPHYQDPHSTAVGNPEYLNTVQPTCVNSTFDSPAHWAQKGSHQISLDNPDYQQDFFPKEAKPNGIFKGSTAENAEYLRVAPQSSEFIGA
T1 sequence (P00533 with tags, fused parts or gaps DEL746-750/T790M, form open): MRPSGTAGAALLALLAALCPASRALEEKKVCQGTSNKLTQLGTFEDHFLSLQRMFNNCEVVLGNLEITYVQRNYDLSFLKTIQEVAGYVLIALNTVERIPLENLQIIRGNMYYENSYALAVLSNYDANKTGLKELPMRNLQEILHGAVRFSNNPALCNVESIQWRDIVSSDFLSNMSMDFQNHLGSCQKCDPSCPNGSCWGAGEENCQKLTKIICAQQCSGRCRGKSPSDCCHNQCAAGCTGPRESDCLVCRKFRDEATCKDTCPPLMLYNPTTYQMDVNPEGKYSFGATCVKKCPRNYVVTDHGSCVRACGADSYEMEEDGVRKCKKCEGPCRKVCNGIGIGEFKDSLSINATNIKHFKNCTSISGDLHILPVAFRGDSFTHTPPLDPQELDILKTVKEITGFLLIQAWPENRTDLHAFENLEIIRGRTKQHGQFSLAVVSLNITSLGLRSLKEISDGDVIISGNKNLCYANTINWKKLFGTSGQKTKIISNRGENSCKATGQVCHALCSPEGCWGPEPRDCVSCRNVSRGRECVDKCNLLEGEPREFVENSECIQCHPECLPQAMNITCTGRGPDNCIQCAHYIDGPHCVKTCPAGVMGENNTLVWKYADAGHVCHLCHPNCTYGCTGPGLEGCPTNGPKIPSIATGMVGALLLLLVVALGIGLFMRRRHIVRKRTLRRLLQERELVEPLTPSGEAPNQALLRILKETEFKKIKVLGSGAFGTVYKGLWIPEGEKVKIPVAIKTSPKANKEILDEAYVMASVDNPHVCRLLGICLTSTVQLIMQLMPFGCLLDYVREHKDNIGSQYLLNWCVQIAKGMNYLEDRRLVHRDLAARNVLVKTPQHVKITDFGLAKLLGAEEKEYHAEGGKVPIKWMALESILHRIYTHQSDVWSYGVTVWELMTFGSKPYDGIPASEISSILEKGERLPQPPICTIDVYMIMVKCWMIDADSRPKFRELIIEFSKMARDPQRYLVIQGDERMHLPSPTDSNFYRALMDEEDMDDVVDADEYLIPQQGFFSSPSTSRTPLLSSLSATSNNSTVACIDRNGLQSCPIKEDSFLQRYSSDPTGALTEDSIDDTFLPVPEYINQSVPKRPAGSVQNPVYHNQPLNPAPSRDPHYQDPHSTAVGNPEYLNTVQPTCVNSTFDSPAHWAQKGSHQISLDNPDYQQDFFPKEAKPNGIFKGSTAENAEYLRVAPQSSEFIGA
T2 sequence (P00533 whole entry T790M/L858R): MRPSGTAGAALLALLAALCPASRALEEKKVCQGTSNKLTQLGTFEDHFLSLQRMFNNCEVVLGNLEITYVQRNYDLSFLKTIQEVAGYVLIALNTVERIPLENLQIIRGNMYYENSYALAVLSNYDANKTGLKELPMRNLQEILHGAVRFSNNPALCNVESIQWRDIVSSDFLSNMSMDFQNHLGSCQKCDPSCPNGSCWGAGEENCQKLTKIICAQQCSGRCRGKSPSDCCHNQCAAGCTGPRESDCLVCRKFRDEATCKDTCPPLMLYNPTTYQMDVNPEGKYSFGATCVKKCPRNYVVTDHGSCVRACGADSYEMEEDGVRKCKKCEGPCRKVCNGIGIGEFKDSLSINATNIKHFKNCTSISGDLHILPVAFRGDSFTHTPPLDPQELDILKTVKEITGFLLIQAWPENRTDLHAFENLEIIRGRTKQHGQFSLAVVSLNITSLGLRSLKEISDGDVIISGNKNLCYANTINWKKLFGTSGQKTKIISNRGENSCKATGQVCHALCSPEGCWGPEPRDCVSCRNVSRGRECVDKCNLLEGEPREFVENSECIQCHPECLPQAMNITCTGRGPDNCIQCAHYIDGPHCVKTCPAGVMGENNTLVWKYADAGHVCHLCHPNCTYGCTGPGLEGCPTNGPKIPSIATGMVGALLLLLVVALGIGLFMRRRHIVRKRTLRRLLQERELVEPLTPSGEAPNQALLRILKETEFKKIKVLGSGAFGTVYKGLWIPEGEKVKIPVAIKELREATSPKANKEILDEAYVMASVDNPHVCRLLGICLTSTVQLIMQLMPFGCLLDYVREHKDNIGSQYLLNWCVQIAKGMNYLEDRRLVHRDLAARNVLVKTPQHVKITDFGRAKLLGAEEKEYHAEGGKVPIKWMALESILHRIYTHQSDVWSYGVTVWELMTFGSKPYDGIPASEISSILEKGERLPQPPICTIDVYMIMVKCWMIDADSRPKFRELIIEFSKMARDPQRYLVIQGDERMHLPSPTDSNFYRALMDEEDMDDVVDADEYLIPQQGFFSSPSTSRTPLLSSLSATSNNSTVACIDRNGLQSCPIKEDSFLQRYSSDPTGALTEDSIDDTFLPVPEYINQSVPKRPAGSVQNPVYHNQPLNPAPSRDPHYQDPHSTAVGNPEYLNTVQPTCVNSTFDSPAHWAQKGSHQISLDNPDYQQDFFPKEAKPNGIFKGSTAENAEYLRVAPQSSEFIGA
Chain of human EGFR (native sequence) (P00533 25-1210): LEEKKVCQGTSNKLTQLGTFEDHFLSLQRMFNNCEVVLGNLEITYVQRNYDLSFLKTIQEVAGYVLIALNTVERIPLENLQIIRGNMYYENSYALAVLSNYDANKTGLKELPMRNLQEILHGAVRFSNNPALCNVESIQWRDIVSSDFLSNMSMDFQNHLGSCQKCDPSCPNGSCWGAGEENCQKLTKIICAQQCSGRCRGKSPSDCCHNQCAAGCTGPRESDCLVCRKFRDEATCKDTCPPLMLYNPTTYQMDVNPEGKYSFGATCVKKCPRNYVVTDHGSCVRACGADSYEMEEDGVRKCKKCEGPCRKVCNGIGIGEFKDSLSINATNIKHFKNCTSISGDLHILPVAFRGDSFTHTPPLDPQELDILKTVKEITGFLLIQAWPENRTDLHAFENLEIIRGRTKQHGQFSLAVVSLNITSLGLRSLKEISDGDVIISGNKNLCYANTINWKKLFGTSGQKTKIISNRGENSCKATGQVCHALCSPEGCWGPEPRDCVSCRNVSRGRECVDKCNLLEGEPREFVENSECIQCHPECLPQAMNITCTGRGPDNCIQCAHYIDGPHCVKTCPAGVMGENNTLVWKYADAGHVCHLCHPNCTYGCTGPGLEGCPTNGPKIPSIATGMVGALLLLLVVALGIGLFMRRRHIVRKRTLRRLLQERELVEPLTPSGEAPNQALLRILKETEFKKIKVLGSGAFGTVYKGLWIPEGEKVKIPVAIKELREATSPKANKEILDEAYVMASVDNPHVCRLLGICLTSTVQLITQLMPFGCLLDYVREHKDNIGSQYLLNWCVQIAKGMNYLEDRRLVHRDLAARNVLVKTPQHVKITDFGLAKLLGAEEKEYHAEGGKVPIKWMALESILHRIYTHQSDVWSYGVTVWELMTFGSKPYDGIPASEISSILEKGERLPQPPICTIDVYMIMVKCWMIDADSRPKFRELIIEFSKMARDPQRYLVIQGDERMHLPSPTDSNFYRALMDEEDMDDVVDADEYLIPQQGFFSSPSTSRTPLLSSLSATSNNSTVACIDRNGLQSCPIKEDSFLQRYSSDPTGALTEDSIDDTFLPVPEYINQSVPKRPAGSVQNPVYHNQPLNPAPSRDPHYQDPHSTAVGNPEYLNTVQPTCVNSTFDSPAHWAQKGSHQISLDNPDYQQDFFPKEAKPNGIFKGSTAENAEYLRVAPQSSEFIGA

SMILES | IC50 ([1]; human EGFR native sequence) | IC50 (EGFR L858R; EGFR L858R) | IC50 (EGFR L858R/T790M; [5]) | GI50 [2] | GI50 [3] | IC50 [1, 6] | IC50 (EGFR L858R; [6]) | IC50 (EGFR L858R/T790M; [6]) | IC50 ([4]; BAF3 PARENTAL cells (control)) | IC50 ([4]; BAF3 parental cells)
C=CC(=O)Nc1cc(Nc2ncc(Cl)c(Nc3ccccc3P(C)(C)=O)n2)c(OC)cc1OCCN1CCOCC1 [Example 4, N-(5-((5-chloro-4-((2-(dimethylphosphoryl)phenyl)amino)pyrimidin-2-yl)amino)-4-methoxy-2-(2-morpholinoethoxy)phenyl)acrylamide] | < 50 nM | < 50 nM | < 50 nM | 50 to 100 nM | 101 to 250 nM | – | – | – | ≥ 250 nM | –
C=CC(=O)Nc1cc(Nc2ncc(Cl)c(Nc3ccccc3P(C)(C)=O)n2)c(OC)cc1OCc1cccnc1 [Example 10, N-(5-((5-chloro-4-((2-(dimethylphosphoryl)phenyl)amino)pyrimidin-2-yl)amino)-4-methoxy-2-(pyridin-3-ylmethoxy)phenyl)acrylamide] | 50 to 100 nM | < 50 nM | < 50 nM | 50 to 100 nM | 101 to 250 nM | – | – | – | ≥ 250 nM | –
COc1ccc(NC(=O)/C=C/C2(N)CC2)cc1Nc1ncc(Cl)c(Nc2ccccc2P(C)(C)=O)n1 [Example 94, (E)-3-(1-aminocyclopropyl)-N-(3-((5-chloro-4-((2-(dimethylphosphoryl)phenyl)amino)pyrimidin-2-yl)amino)-4-methoxyphenyl)acrylamide] | 101 to 250 nM | < 50 nM | < 50 nM | ≥ 250 nM | ≥ 250 nM | – | – | – | ≥ 250 nM | –
C=CC(=O)Nc1cc(Nc2ncc(Cl)c(Nc3ccccc3P(C)(C)=O)n2)c(OC)cc1OC(COC)CN(C)C (stereo not drawn) [Example 130, N-(5-((5-chloro-4-((2-(dimethylphosphoryl)phenyl)amino)pyrimidin-2-yl)amino)-2-((1-(dimethylamino)-3-methoxypropan-2-yl)oxy)-4-methoxyphenyl)acrylamide] | – | – | – | < 50 nM | < 50 nM | < 50 nM | < 50 nM | < 50 nM | – | ≥ 250 nM
C=CC(=O)Nc1ccc(OC)c(Nc2ncc(Cl)c(Nc3ccc(OCCOC)cc3P(C)(C)=O)n2)c1 [Example 86, N-(3-((5-chloro-4-((2-(dimethylphosphoryl)-4-(2-methoxyethoxy)phenyl)amino)pyrimidin-2-yl)amino)-4-methoxyphenyl)acrylamide] | 50 to 100 nM | < 50 nM | < 50 nM | < 50 nM | 50 to 100 nM | – | – | – | ≥ 250 nM | –
COCC#CC(=O)Nc1cc(Nc2ncc(Cl)c(Nc3ccccc3P(C)(C)=O)n2)c(OC)cc1N1CCOCC1 [Example 105, N-(5-((5-chloro-4-((2-(dimethylphosphoryl)phenyl)amino)pyrimidin-2-yl)amino)-4-methoxy-2-morpholinophenyl)-4-methoxybut-2-ynamide] | – | – | – | < 50 nM | < 50 nM | < 50 nM | < 50 nM | < 50 nM | – | ≥ 250 nM
C=CC(=O)Nc1cc(Nc2ncc(Cl)c(Nc3ccccc3P(C)(C)=O)n2)c(C)cc1C#CCN(C)C [Example 151, N-(5-((5-chloro-4-((2-(dimethylphosphoryl)phenyl)amino)pyrimidin-2-yl)amino)-2-(3-(dimethylamino)prop-1-yn-1-yl)-4-methylphenyl)acrylamide] | – | – | – | < 50 nM | < 50 nM | < 50 nM | < 50 nM | < 50 nM | – | ≥ 250 nM
C=CC(=O)Nc1cc(Nc2ncc(Cl)c(Nc3ccccc3P(C)(C)=O)n2)c(OC)cc1N1CCC(N2CCCC2)CC1 [Example 72, N-(5-((5-chloro-4-((2-(dimethylphosphoryl)phenyl)amino)pyrimidin-2-yl)amino)-4-methoxy-2-(4-(pyrrolidin-1-yl)piperidin-1-yl)phenyl)acrylamide] | 50 to 100 nM | < 50 nM | < 50 nM | < 50 nM | 101 to 250 nM | – | – | – | ≥ 250 nM | –
C=CC(=O)Nc1cc(Nc2ncc(Cl)c(Nc3ccccc3P(C)(C)=O)n2)c(OC)cc1CCN1CCN(C)CC1 [Example 74, N-(5-((5-chloro-4-((2-(dimethylphosphoryl)phenyl)amino)pyrimidin-2-yl)amino)-4-methoxy-2-(2-(4-methylpiperazin-1-yl)ethyl)phenyl)acrylamide] | < 50 nM | < 50 nM | < 50 nM | 101 to 250 nM | ≥ 250 nM | – | – | – | ≥ 250 nM | –

Continued, in another order:

IC50 ([1]; human EGFR native sequence) | IC50 (EGFR L858R; EGFR L858R) | IC50 (EGFR L858R/T790M; [5]) | GI50 [2] | GI50 [3] | IC50 [1, 6] | IC50 (EGFR L858R; [6]) | IC50 (EGFR L858R/T790M; [6]) | SMILES | IC50 ([4]; BAF3 PARENTAL cells (control)) | IC50 ([4]; BAF3 parental cells)
≥ 250 nM | < 50 nM | < 50 nM | < 50 nM | 101 to 250 nM | – | – | – | CC#CC(=O)Nc1cc(Nc2ncc(Cl)c(Nc3ccccc3P(C)(C)=O)n2)c(OC)cc1OCCN1CCCC1 [Example 80, N-(5-((5-chloro-4-((2-(dimethylphosphoryl)phenyl)amino)pyrimidin-2-yl)amino)-4-methoxy-2-(2-(pyrrolidin-1-yl)ethoxy)phenyl)but-2-ynamide] | ≥ 250 nM | –
< 50 nM | < 50 nM | < 50 nM | < 50 nM | < 50 nM | – | – | – | C=CC(=O)Nc1cc(Nc2ncc(Cl)c(Nc3ccccc3P(C)(C)=O)n2)c(OC)cc1N1CCC(N(C)C)C1 (stereo not drawn) [Example 24, N-(5-((5-chloro-4-((2-(dimethylphosphoryl)phenyl)amino)pyrimidin-2-yl)amino)-2-(3-(dimethylamino)pyrrolidin-1-yl)-4-methoxyphenyl)acrylamide] | ≥ 250 nM | –
– | – | – | < 50 nM | 101 to 250 nM | < 50 nM | < 50 nM | < 50 nM | C=C(Cl)C(=O)Nc1ccc(OC)c(Nc2ncc(Cl)c(Nc3ccccc3P(C)(C)=O)n2)c1 [Example 132, 2-chloro-N-(3-((5-chloro-4-((2-(dimethylphosphoryl)phenyl)amino)pyrimidin-2-yl)amino)-4-methoxyphenyl)acrylamide] | – | ≥ 250 nM
< 50 nM | < 50 nM | < 50 nM | < 50 nM | < 50 nM | – | – | – | COc1cc(F)c(NC(=O)C#CCN(C)C)cc1Nc1ncc(Cl)c(Nc2ccccc2P(C)(C)=O)n1 [Example 87, N-(5-((5-chloro-4-((2-(dimethylphosphoryl)phenyl)amino)pyrimidin-2-yl)amino)-2-fluoro-4-methoxyphenyl)-4-(dimethylamino)but-2-ynamide] | 101 to 250 nM | –
– | – | – | < 50 nM | < 50 nM | < 50 nM | < 50 nM | < 50 nM | C=CC(=O)Nc1cc(Nc2ncc(Cl)c(Nc3ccccc3P(C)(C)=O)n2)c(OC)cc1C#CCN1CCCCCC1 [Example 165, N-(2-(3-(azepan-1-yl)prop-1-yn-1-yl)-5-((5-chloro-4-((2-(dimethylphosphoryl)phenyl)amino)pyrimidin-2-yl)amino)-4-methoxyphenyl)acrylamide] | – | ≥ 250 nM
– | – | – | < 50 nM | 50 to 100 nM | ≥ 250 nM | < 50 nM | 50 to 100 nM | CC#CC(=O)Nc1cc(Nc2ncc(Cl)c(Nc3ccccc3P(C)(C)=O)n2)c(OC)cc1OC1COC1 [Example 103, N-(5-((5-chloro-4-((2-(dimethylphosphoryl)phenyl)amino)pyrimidin-2-yl)amino)-4-methoxy-2-(oxetan-3-yloxy)phenyl)but-2-ynamide] | – | ≥ 250 nM
< 50 nM | < 50 nM | < 50 nM | < 50 nM | < 50 nM | – | – | – | C=CC(=O)Nc1cc(Nc2ncc(Cl)c(Nc3ccccc3P(C)(C)=O)n2)c(OC)cc1N1CCC(N2CCCC2)C1 (stereo not drawn) [Example 36, N-(2-([1,3′-bipyrrolidin]-1′-yl)-5-((5-chloro-4-((2-(dimethylphosphoryl)phenyl)amino)pyrimidin-2-yl)amino)-4-methoxyphenyl)acrylamide] | ≥ 250 nM | –
< 50 nM | < 50 nM | < 50 nM | < 50 nM | 50 to 100 nM | – | – | – | C=CC(=O)Nc1cc(Nc2ncc(Cl)c(Nc3ccccc3P(C)(C)=O)n2)c(OC)cc1CN1CCN(C)CC1 [Example 55, N-(5-((5-chloro-4-((2-(dimethylphosphoryl)phenyl)amino)pyrimidin-2-yl)amino)-4-methoxy-2-((4-methylpiperazin-1-yl)methyl)phenyl)acrylamide] | ≥ 250 nM | –
